According to patent US20230051268A1, “USE OF L[…] TREATING INSOMNIA” (Eisai R&D Management Co., Ltd., priority 2019, published 2023):
Values joined by “and” are separate entries in the source; they are usually repeats but may differ in a detail not shown here. Equal values may be shown once. Read-outs that look alike come from different tables or passages of the source. Marks after values point to notes of the source that are not given here.

Columns and labels:
[1] = Safety and tolerability assessment (TEAEs, ECGs, vital signs, laboratory tests) after single 10 mg dose; format: in vivo, human
Experimental: (§1) On Day 1, the subjects were administered a single oral 10 mg dose of lemborexant with approximately 240 mL of water in the morning after an overnight fast. No food was allowed for at least 4 hours postdose. Water was allowed as desired except for 1 hour before and after drug administration.
Safety was assessed by monitoring and documenting treat-emergent adverse events (TEAEs), ECGs, vital signs, weight, physical examinations, and clinical laboratory tests (urinalysis, hematology, and blood chemistry).

[2] = Plasma protein binding (unbound fraction) by equilibrium dialysis and LC-MS/MS, samples 1 and 24 hours postdose; format: in vitro ADME; conditions: human, oral, 10 mg, lemborexant 10 mg single oral dose, geometric mean (% CV)
Experimental: (§2) The blood samples for PK assessments were collected at prespecified intervals up to 312 hours postdose administration. In addition, the blood samples for plasma protein binding assessments of lemborexant were collected from each subject at 2 time points; approximately 1 hour and 24 hours postdose. The subjects were discharged on Day 14 of the study. The end of the study was the date of the last study visit for the last subject.
(§3) Blood samples (4 mL each) for PK assessments of lemborexant and its metabolites (M4, M9, and M10) were collected at predose (0 hour), 0.5, 1, 1.5, 2, 3, 4, 6, 8, 12, 24, 48, 72, 96, 120, 144, 168, 216, 264, and 312 hours postdose. In addition, blood samples (12 mL per time point) for protein binding of lemborexant and its metabolites (M4, M9, and M10) were collected at 1 and 24 hours postdose matching the PK sample collection at those time points.
(§4) Total mean plasma concentrations of lemborexant and lemborexant metabolites (M4, M9, and M10) were measured by validated liquid chromatography with tandem mass spectrometry (LC-MS/MS). Unbound lemborexant concentrations of lemborexant, M4, M9, and M10 were also measured using a similar validated LC-MS/MS method following equilibrium dialysis.

[3] = Single-dose pharmacokinetic study of lemborexant and metabolites M4, M9, M10 in subjects with mild or moderate hepatic impairment and healthy controls (plasma, LC-MS/MS); format: in vivo, human; conditions: for Ratio (%) (Test/Ref) of geometric mean AUC(0-inf) / Ratio (%) (Test/Ref) of geometric mean AUC(0-t) / Ratio (%) (Test/Ref) of geometric mean Cmax: lemborexant 10 mg single dose; for half-life / AUC(0-inf) / Vd/F / Cmax / AUC(0-t) / AUCu / CL/F / CLu/F: geometric mean (% CV); for Vd/F: read-out: Vz/F
Experimental: A multicenter, single-dose, open-label, parallel-group study in subjects with mild or moderate hepatic impairment and matched (with regard to age [±10 years], sex, and body mass index [BMI, ±20%]) healthy subjects as controls was performed.
The primary objective of the study was to assess the effect of mild and moderate hepatic impairment on the PK of lemborexant after a single-dose administration.
Secondary objectives of the study were: to evaluate the effects of hepatic impairment on the PK of lemborexant metabolites M4, M9, and M10; to evaluate the relationship between the PK parameters of lemborexant and its metabolites and the Child-Pugh classification score, serum albumin, total bilirubin, and PT; and to assess safety and tolerability of lemborexant following a single-dose administration in subjects with mild or moderate hepatic impairment and healthy control subjects.
as §1, §2, §3, §4

[4] = human, plasma, po, 10 mg, lemborexant 10 mg single oral dose, normal hepatic function (n = 8)
[5] = lemborexant 10 mg single oral dose, mild hepatic impairment (n = 7)
[6] = lemborexant 10 mg single oral dose, moderate hepatic impairment (n = 6)
[7] = lemborexant 10 mg single oral dose, normal hepatic function (n = 8)
[8] = moderate hepatic impairment, 10 mg

Structure (SMILES): Cc1ncc(OC[C@@]2(c3cccc(F)c3)C[C@H]2C(=O)Nc2ccc(F)cn2)c(C)n1 [lemborexant, (1R,2S)-2-(((2,4-dimethylpyrimidin-5-yl)oxy)methyl)-2-(3-fluorophenyl)-N-(5-fluoropyridin-2-yl)cyclopropanecarboxamide]
- subjects who experienced a TEAE ([1]; Class A (mild hepatic impairment)): 7 (87.5%) subjects (%)
- subjects who experienced a TEAE ([1]; Class B (moderate hepatic impairment)): 6 (75.0%) subjects (%)
- subjects who experienced a TEAE ([1]; Healthy Controls): 7 (87.5%) subjects (%)
- subjects who experienced a TEAE ([1]; all 24 subjects): 20 (83.3%) subjects (%)
- TEAEs potentially related to cataplexy ([1]; all cohorts): no TEAEs potentially related to cataplexy
- TEAEs that led to subject discontinuation ([1]; all cohorts): none
- severity of TEAEs ([1]; all cohorts): mild in severity
- SAEs reported ([1]; all cohorts, single 10 mg dose): No SAEs were reported
- fraction unbound ([2]; mild hepatic impairment (n = 8)): 0.063
- fraction unbound ([2]; moderate hepatic impairment (n = 8)): 0.065
- fraction unbound ([2]; normal hepatic function (n = 8)): 0.0597
- Ratio (%) (Test/Ref) of geometric mean AUC(0-inf) ([3]; Mild: Normal): 125.03%
- Ratio (%) (Test/Ref) of geometric mean AUC(0-t) ([3]; Mild: Normal): 131.91%
- Ratio (%) (Test/Ref) of geometric mean Cmax ([3]; Mild: Normal): 157.86%
- Ratio (%) (Test/Ref) of geometric mean AUC(0-inf) ([3]; Moderate: Normal): 153.56%
- Ratio (%) (Test/Ref) of geometric mean AUC(0-t) ([3]; Moderate: Normal): 149.52%
- Ratio (%) (Test/Ref) of geometric mean Cmax ([3]; Moderate: Normal): 122.20%
- Tmax ([3]; human, plasma, oral, 10 mg, normal, mild and moderate cohorts, 10 mg tablet, read-out: median tmax across cohorts): 1 to 1.25 h
- half-life ([3]; human, plasma, po, 10 mg, lemborexant 10 mg single oral dose, mild hepatic impairment (lemborexant n = 7)): 73.7 h
- AUC(0-inf) ([3]; human, plasma, po, 10 mg, lemborexant 10 mg single oral dose, mild hepatic impairment (lemborexant n = 7), read-out: AUC(0-inf)): 567 ng·h/mL
- Vd/F ([3]; human, plasma, po, 10 mg, lemborexant 10 mg single oral dose, mild hepatic impairment (n = 7)): 1880 L
- Cmax ([3]; human, plasma, po, 10 mg, lemborexant 10 mg single oral dose, mild hepatic impairment (n = 8)): 62.9 ng/mL
- AUC(0-t) ([3]; human, plasma, po, 10 mg, lemborexant 10 mg single oral dose, mild hepatic impairment (n = 8), read-out: AUC(0-t)): 574 ng·h/mL
- Tmax ([3]; human, plasma, po, 10 mg, lemborexant 10 mg single oral dose, mild hepatic impairment (n = 8), median (range), read-out: tmax): 1 h
- half-life ([3]; human, plasma, po, 10 mg, lemborexant 10 mg single oral dose, moderate hepatic impairment (lemborexant n = 6)): 105 h
- AUC(0-inf) ([3]; human, plasma, po, 10 mg, lemborexant 10 mg single oral dose, moderate hepatic impairment (lemborexant n = 6), read-out: AUC(0-inf)): 696 ng·h/mL
- Vd/F ([3]; human, plasma, po, 10 mg, lemborexant 10 mg single oral dose, moderate hepatic impairment (n = 6)): 2170 L
- Cmax ([3]; human, plasma, po, 10 mg, lemborexant 10 mg single oral dose, moderate hepatic impairment (n = 8)): 48.7 ng/mL
- AUC(0-t) ([3]; human, plasma, po, 10 mg, lemborexant 10 mg single oral dose, moderate hepatic impairment (n = 8), read-out: AUC(0-t)): 651 ng·h/mL
- Tmax ([3]; human, plasma, po, 10 mg, lemborexant 10 mg single oral dose, moderate hepatic impairment (n = 8), median (range), read-out: tmax): 1 h
- Cmax [3, 4]: 39.8 ng/mL
- half-life [3, 4]: 67 h
- AUC(0-inf) ([3]; human, plasma, po, 10 mg, lemborexant 10 mg single oral dose, normal hepatic function (n = 8), read-out: AUC(0-inf)): 453 ng·h/mL
- AUC(0-t) ([3]; human, plasma, po, 10 mg, lemborexant 10 mg single oral dose, normal hepatic function (n = 8), read-out: AUC(0-t)): 435 ng·h/mL
- Vd/F [3, 4]: 2130 L
- Tmax ([3]; human, plasma, po, 10 mg, lemborexant 10 mg single oral dose, normal hepatic function (n = 8), median (range), read-out: tmax): 1.25 h
- AUC(0-inf) ([3]; lemborexant 10 mg single oral dose, mild hepatic impairment (lemborexant n = 7)): 567 ng·h/mL
- AUCu [3, 5]: 34.9 (52.6)^b h * ng/mL
- CL/F [3, 5]: 17.6 L/h and 17.6 (52.0)^b L/h
- CLu/F [3, 5]: 287 (52.6)^b L/h
- AUC(0-t) ([3]; lemborexant 10 mg single oral dose, mild hepatic impairment (n = 8)): 574 ng·h/mL
- AUC(0-inf) ([3]; lemborexant 10 mg single oral dose, moderate hepatic impairment (lemborexant n = 6)): 696 ng·h/mL
- AUCu [3, 6]: 45.1 (42.6)^c h * ng/mL
- CL/F [3, 6]: 14.4 L/h and 14.4 (34.6)^c L/h
- CLu/F [3, 6]: 222 (42.6)^c L/h
- AUC(0-t) ([3]; lemborexant 10 mg single oral dose, moderate hepatic impairment (n = 8)): 651 ng·h/mL
- AUCu [3, 7]: 27.1 (36.8) h * ng/mL
- CL/F [3, 7]: 22.1 L/h and 22.1 (33.9) L/h
- decrease of total body clearance compared with healthy subjects ([3]; mild hepatic impairment, 10 mg): 20%
- increase of AUC(0-inf) compared to healthy subjects ([3]; mild hepatic impairment, 10 mg): 25%
- increase of Cmax compared to healthy subjects ([3]; mild hepatic impairment, 10 mg): 58%
- exposure (geometric mean Cmax, AUC) compared with healthy control subjects ([3]; mild or moderate hepatic impairment, single 10-mg tablet): higher
- decrease of total body clearance compared with healthy subjects [3, 8]: 35%
- increase of AUC(0-inf) compared to healthy subjects [3, 8]: 54%
- increase of Cmax compared to healthy subjects [3, 8]: 22%
- effects of mild and moderate hepatic impairment on PK (scatter plots, linear regression) ([3]; vs Child-Pugh score, serum albumin, total bilirubin, MELD score, PT): small and similar
